Data taken from ChEMBL document CHEMBL4428075, “New antiproliferative 7-(4-(N-substituted carbamoylmethyl)piperazin-1-yl) derivatives of ciprofloxacin induce cell cycle arrest at G2/M phase” (Bioorg Med Chem, 2016).
The source made the active and inactive calls. The calls are words filed in the database; no cut-off is given here.

How the values were obtained:
A549 [1] = test: Induction of cell cycle arrest in human A549 cells assessed as accumulation at G2/M phase at 5 uM after 24 hrs by FITC-labeled anti-BrdU antibody/7AAD staining based FACS calibur flow cytometric analysis (reference value: 12.61 %); type: functional
A549 [2] = test: Induction of cell cycle arrest in human A549 cells assessed as accumulation at G2/M phase after 24 hrs by FITC-labeled FACS calibur flow cytometric analysis; type: functional, cell-based
A549 [3] = test: Induction of p53 expression in human A549 cells at 25 uM after 24 hrs in presence of PFTalpha by Western blot analysis; type: functional, cell-based
A549 [4] = test: Induction of p21 expression in human A549 cells at 25 uM after 24 hrs in presence of PFTalpha by Western blot analysis; type: functional, cell-based
A549 [5] = test: Induction of cell cycle arrest in human A549 cells assessed as accumulation at G1 phase at 15 uM after 24 hrs by FITC-labeled anti-BrdU antibody/7AAD staining based FACS calibur flow cytometric analysis (reference value: 65.9 %); type: functional
A549 [6] = test: Downregulation of cdc2 expression in human A549 cells after 24 hrs by Western blot analysis; type: functional, cell-based
A549 [7] = test: Induction of cell cycle arrest in human A549 cells assessed as accumulation at S phase at 5 uM after 24 hrs by FITC-labeled anti-BrdU antibody/7AAD staining based FACS calibur flow cytometric analysis (reference value: 20.9 %); type: functional
WI-38 [8] = test: Upregulation of p21 expression in human WI38 cells at 5 to 25 uM after 24 hrs by Western blot analysis; type: ADME, cell-based; details: wi-38, 24 h
WI-38 [9] = test: Upregulation of p53 expression human WI38 cells at 5 to 25 uM after 24 hrs by Western blot analysis; type: ADME, cell-based; details: wi-38, 24 h
A549 [10] = test: Downregulation of cyclinB1 expression in human A549 cells after 24 hrs by Western blot analysis; type: functional, cell-based
A549 [11] = test: Induction of cell cycle arrest in human A549 cells assessed as accumulation at G1 phase at 10 uM after 24 hrs by FITC-labeled anti-BrdU antibody/7AAD staining based FACS calibur flow cytometric analysis (reference value: 65.9 %); type: functional
A549 [12] = test: Induction of cell cycle arrest in human A549 cells assessed as accumulation at G2/M phase at 10 uM after 24 hrs by FITC-labeled anti-BrdU antibody/7AAD staining based FACS calibur flow cytometric analysis (reference value: 12.61 %); type: functional
A549 [13] = test: Upregulation of p53 expression in human A549 cells after 24 hrs by Western blot analysis; type: functional, cell-based
A549 [14] = test: Induction of cell cycle arrest in human A549 cells assessed as accumulation at G1 phase at 25 uM after 24 hrs by FITC-labeled anti-BrdU antibody/7AAD staining based FACS calibur flow cytometric analysis (reference value: 65.9 %); type: functional
A549 [15] = test: Induction of cell cycle arrest in human A549 cells assessed as accumulation at sub G1 phase at 25 uM after 24 hrs by FITC-labeled anti-BrdU antibody/7AAD staining based FACS calibur flow cytometric analysis (reference value: 0.82 %); type: functional
A549 [16] = test: Induction of cell cycle arrest in human A549 cells assessed as accumulation at G2/M phase at 25 uM after 24 hrs by FITC-labeled anti-BrdU antibody/7AAD staining based FACS calibur flow cytometric analysis (reference value: 12.61 %); type: functional

With `O=C(CN1CCN(c2cc3c(cc2F)c(=O)c(C(=O)O)cn3C2CC2)CC1)Nc1ccc(Cl)cc1` the Activity (A549 [1]) was 13.21%, the Activity (A549 [2]) was “Dose-dependent effect” and the Activity (A549 [3]) was “inactive”. For the same molecule, the Activity (A549 [4]) was “inactive”, the Activity (A549 [5]) was 46% and the Activity (A549 [6]) was “Dose-dependent effect”. For the same molecule, the Activity (A549 [7]) was 16.2%, the Activity (WI-38 [8]) was “Non-Toxic” and the Activity (WI-38 [9]) was “Non-Toxic”. The Activity (A549 [10]) was “Dose-dependent effect”, the Activity (A549 [11]) was 58.5% and the Activity (A549 [12]) was 22.6%. The Activity (A549 [13]) was “Dose-dependent effect”, the Activity (A549 [14]) was 24.8% and the Activity (A549 [15]) was 2.6%. The Activity (A549 [16]) was 64%.
